Laboratory results reported in patent US8039668B2, “Naphthalene-based inhibitors of anti-apoptotic proteins” (Burnham Institute for Medical Research, priority 2008, dated 2011).
Like-named read-outs stand apart in the source and are kept apart here. Blank lines part the entries; values can stand above or below the molecule they belong to.

How the values were obtained:
BCL-XL [1] = target: T1, BCL-XL (Homo sapiens, UniProt Q07817); assay: 1D 1H-NMR binding assay; design: key to 1D-^1H NMR: +++, Very Active; ++, Active; +, Mild; −, Weak; conditions: for 1D-^1H NMR: BCL-XL 25 μM, compound 200 μM; for 1D ^1H-NMR Binding Assay (BCL-XL): Table 9
Procedure: By observing the aliphatic region of the spectra, binding could be readily detected due to chemical shift changes in active site methyl groups of Ile, Leu, Thr, Val or Ala (region between −0.8 and 0.3 ppm). All experiments were performed with a 600 MHz spectrometer Bruker Avance 600 equipped with four rf channels and z-axis pulse-field gradients.
Target sequence in this assay (Q07817 whole entry): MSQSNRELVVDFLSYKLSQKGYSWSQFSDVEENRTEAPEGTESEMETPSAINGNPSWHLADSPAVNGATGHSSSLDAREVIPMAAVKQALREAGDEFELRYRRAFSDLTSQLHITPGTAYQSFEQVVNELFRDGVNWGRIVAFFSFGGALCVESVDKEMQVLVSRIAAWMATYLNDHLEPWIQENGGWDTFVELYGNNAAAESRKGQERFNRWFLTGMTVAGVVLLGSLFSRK

Bcl-2 = Bcl-2 (Homo sapiens, UniProt P10415); assay: Competitive fluorescence polarization assay (FPA), Bim BH3 peptide; assay type: binding
Mcl-1 = Mcl-1 (Homo sapiens, UniProt Q07820); assay: as above; assay type: binding
Plasma stability = assay type: in vitro ADME, rat; conditions: Table 6; rat plasma, 1 h
Procedure: Plasma Stability. A 20 μL aliquot of a 10 mM solution in DMSO of the test compound was added to 2.0 mL of heparinized rat plasma (Lampire, P1-150N) to obtain a 100 μM final solution. The mixture was incubated for 1 h at 37.5° C. Aliquots of 100 μL were taken (0, 30 min, 1 h) and diluted with 200 μL of MeOH containing internal standard.

[2] = Liver microsomal stability; assay type: in vitro ADME, rat; conditions: Table 6; rat liver microsomes, 1 h
Excerpt: Liver Microsomal Stability.

BCL-XL [3] = target: T1, BCL-XL; assay: Competitive fluorescence polarization assay (FPA), Bak BH3 peptide; assay type: binding; design: 100 nM GST-BCL-XL ΔTM protein
Procedure: For competitive binding assays, 100 nM GST-BCL-XL ΔTM protein was preincubated with the tested compound at varying concentrations in 47.5 μL PBS (pH=7.4) in 96-well black plates at room temperature for 10 min, then 2.5 μL of 100 nM FITC-labeled Bak BH3 peptide was added to produce a final volume of 50 μL. The wild-type and mutant Bak BH3 peptides were included in each assay plate as positive and negative controls, respectively. […] IC50 was determined by fitting the experimental data to a sigmoidal dose-response nonlinear regression model (SigmaPlot 10.0.1, Systat Software, Inc., San Jose, Calif., USA). Data reported are mean of three independent experiments±standard error (SE). […] Fluorescence polarization was measured after 10 min.
Target sequence in this assay (Q07817 1-209 limits assumed): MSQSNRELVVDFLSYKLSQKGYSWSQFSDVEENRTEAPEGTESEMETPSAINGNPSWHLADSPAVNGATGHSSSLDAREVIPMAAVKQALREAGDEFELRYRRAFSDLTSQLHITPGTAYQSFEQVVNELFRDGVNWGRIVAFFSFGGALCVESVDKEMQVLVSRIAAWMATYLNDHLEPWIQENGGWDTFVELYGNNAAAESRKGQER

[4] = tested on: BP3 human B-cell lymphoma cell line; assay: Annexin V-FITC and propidium iodide assay; assay type: cell-based; conditions: for EC50: Homo sapiens, B-cell, Table 3, Annexin V-FITC and propidium iodide assay, read-out: EC50 BP3
H1299 cell line = assay: Cell viability, ATP-LITE assay; assay type: cell-based, human; conditions: Homo sapiens
Procedure: (§1) The activity of the compounds against human cancer cell lines (PC3ML, H460, H1299, RS11846) were assessed by using the ATP-LITE assay (PerkinElmer). All cells were seeded in either F12 or RPMI1640 medium with 5 mM L-glutamine supplemented with 5% fetal bovine serum (Mediatech Inc.), penicillin and streptomycin (Omega). For maintenance, cells were cultured in 5% FBS. Cells plated into 96 well plates at varying initial densities depending on doubling time. H460 and H1299 plated at 2000 cells/well, A549 and PC3 at 3000 cells/well, and RS118456S at 10,000 cells/well. Compounds were diluted to final concentrations with 0.1% DMSO. Prior to dispensing compounds onto cells, fresh 5% media was placed into wells. Administration of compounds occurred 24 hours after seeding into the fresh media. Cell viability was evaluated using ATP-LITE reagent (PerkinElmer) after 72 hours of treatment. Data were normalized to the DMSO control-treated cells using Prism version 5.01 (Graphpad Software).

PC3ML cells = assay: Cell viability, ATP-LITE assay; assay type: cell-based, human; conditions: Homo sapiens, PC3-ML
Procedure: as §1

[5] = tested on: H460 human lung cell line; assay: Cell viability, ATP-LITE assay; assay type: cell-based; conditions: for EC50: Homo sapiens
Procedure: as §1

RS11846 cell line = assay: Cell viability, ATP-LITE assay; assay type: cell-based; conditions: Homo sapiens, read-out: RS11846 EC50 (ATP-LITE assay)
Procedure: as §1

[6] = tested on: human lymphoma RS11846 cell line; assay: Apoptosis, Annexin V-FITC and propidium iodide assay; assay type: cell-based; conditions: for EC50: Homo sapiens
Procedure: The apoptotic activity of the compounds against RS11846 cells was assessed by staining with Annexin V- and propidium iodide (PI). Lymphoma cell line, RS11846, was cultured in RPMI 1640 medium (Mediatech Inc., Herndon, Va. 20171) containing 10% fetal bovine serum (Mediatech Inc., Herndon, Va. 20171) and Penicillin/Streptomycin (Mediatech Inc., Herndon, Va. 20171). […] The percentage of viable cells was determined by FITC-Annexin V- and propidium iodide (PI)-labeling, using an Apoptosis Detection kit (BioVision Inc.), and analyzing stained cells by flow cytometry (FACSort; Bectin-Dickinson, Inc.; Mountain View, Calif.). Cells that were annexin-V-negative and PI-negative were considered viable.

B6Bcl-2 transgenic mice = tested on: B6Bcl-2 transgenic mice
Procedure: Transgenic mice expressing BCL-2 have been described as the B6 line. The BCL-2 transgene res a minigene version of a t(14;18) translocation in which the human BCL-2 gene is fused with the immunoglobulin heavy-chain (IgH) locus and associated IgH enhancer. The transgene was propagated on the Balb/c background.
After 24 hours, B6BCL2 mice were sacrificed by intraperitoneal injection of lethal dose of Avertin. Spleen was removed and weighed. […] Spleen tissue was fixed in z-FIX for 3 days and rinsed in PBS, and saved for histological analysis of spleen (H&E staining and TUNEL assay).

BCL-XL [7] = target: T1, BCL-XL; assay: Isothermal titration calorimetry (ITC); assay type: binding; conditions: vs Apogossypol
Procedure: Titrations were performed using a VP-ITC or ITC200 calorimeter from Microcal (Northampton, Mass.). BCL-XL was used at concentrations between 25 and 100 μM in 20 mM sodium phosphate buffer (pH 7.4) and 5-10% DMSO. Titrants were used at concentrations 10-15 fold of that of the protein in the same buffer. Titrations were carried out at 25° C. Data were analyzed using Microcal Origin software provided by the ITC manufacturer (Microcal, Northampton, Mass.).
Target sequence in this assay (Q07817 whole entry): as the sequence (Q07817 whole entry) above

[8] = NCI-H1299, Table 9, read-out: H1299 EC50
[9] = NCI-H460, Table 9, read-out: H460 EC50
[10] = Table 9, read-out: RS11846 EC50 (Annexin V- and propidium iodide assay)
[11] = Table 9, read-out: FPA IC50 (BCL-XL)
[12] = NCI-H460, heading: EC50 H460, Table 3, ATP-LITE assay, read-out: EC50 H460
[13] = Table 3, Annexin V-FITC and propidium iodide assay, heading: EC50 RS11846, read-out: EC50 RS11846
[14] = NCI-H1299, read-out: H1299 EC50
[15] = read-out: RS11846 EC50 (Annexin V- and propidium iodide assay), Table 9

Sequence of Mcl-1 (Q07820 whole entry): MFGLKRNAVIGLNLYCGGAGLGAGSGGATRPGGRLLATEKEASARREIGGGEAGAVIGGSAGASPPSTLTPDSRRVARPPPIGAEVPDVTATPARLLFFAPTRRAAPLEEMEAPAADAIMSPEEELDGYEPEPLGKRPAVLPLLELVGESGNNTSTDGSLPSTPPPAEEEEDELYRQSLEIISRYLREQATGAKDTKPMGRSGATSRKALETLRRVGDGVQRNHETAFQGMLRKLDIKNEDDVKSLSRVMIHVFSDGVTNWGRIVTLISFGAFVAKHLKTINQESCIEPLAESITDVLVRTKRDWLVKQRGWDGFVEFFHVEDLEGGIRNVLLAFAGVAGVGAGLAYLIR
Sequence of Bcl-2 (P10415 whole entry): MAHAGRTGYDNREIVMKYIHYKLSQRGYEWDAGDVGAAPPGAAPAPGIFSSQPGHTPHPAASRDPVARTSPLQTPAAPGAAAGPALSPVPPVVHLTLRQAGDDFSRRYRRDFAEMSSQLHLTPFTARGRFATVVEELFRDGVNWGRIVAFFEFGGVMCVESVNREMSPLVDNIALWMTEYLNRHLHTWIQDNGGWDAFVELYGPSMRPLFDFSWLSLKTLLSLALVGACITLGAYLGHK

Compound: Cc1cc2c(C(=O)NCCc3ccccc3)c(O)c(O)cc2c(O)c1-c1c(C)cc2c(C(=O)NCCc3ccccc3)c(O)c(O)cc2c1O [Compound 8n, 1,1′,6,6′,7,7′-hexahydroxy-3,3′-dimethyl-N^5,N^5′-diphenethyl-2,2′-binaphthyl-5,5′-dicarboxamide]
1D-^1H NMR (BCL-XL [1]; Table 3): ++ | IC50 (Bcl-2): 150 nM | IC50 (Mcl-1): 300 nM | Plasma stability (T = 1 h) (Plasma stability): 63% | Microsomal Stability (T = 1 h) [2]: 60% | IC50 (BCL-XL [3]; read-out: IC50 FPA Bcl-XL): 800 nM

Compound: CN(C)CC[C@H](CSc1ccccc1)Nc1ccc(S(=O)(=O)NC(=O)c2ccc(N3CCN(Cc4ccccc4-c4ccc(Cl)cc4)CC3)cc2)cc1[N+](=O)[O-] [ABT-737, reference compound]
cell activity against BP3 cell lines [4]: no cell activity

1D ^1H-NMR Binding Assay (BCL-XL) (BCL-XL [1]): + | EC50 (H1299 cell line; [8]): 2000 nM | EC50 (PC3ML cells; Table 9, read-out: PC3ML EC50): 2900 nM | EC50 [5, 9]: 2200 nM | EC50 [6, 10]: 3000 to 5500 nM | IC50 (BCL-XL [3]; [11]): 250 nM
Compound: Cc1cc2c(C(=O)c3ccc(C(F)(F)F)cc3)c(O)c(O)cc2c(O)c1-c1c(C)cc2c(C(=O)c3ccc(C(F)(F)F)cc3)c(O)c(O)cc2c1O [Compound XI, (1,1′,6,6′,7,7′-hexahydroxy-3,3′-dimethyl-2,2′-binaphthyl-5,5′-diyl)bis((4-(trifluoromethyl)phenyl)methanone)]
EC50 (RS11846 cell line; Table 9): 2500 nM

1D-^1H NMR (BCL-XL [1]; Table 3): − | EC50 (H1299 cell line; NCI-H1299, heading: EC50 H1299, Table 3, ATP-LITE assay, read-out: EC50 H1299): > 30000 nM | EC50 (PC3ML cells; Table 3, ATP-LITE assay, heading: EC50 PC3ML, read-out: EC50 PC3ML): > 30000 nM | EC50 [5, 12]: > 30000 nM | EC50 [6, 13]: > 30000 nM | EC50 ([4]; heading: EC50 BP3): > 30000 nM
Compound: Cc1cc2c(C(=O)O)c(O)c(O)cc2c(O)c1-c1c(C)cc2c(C(=O)O)c(O)c(O)cc2c1O [Compound 14, 1,1′,6,6′,7,7′-hexahydroxy-3,3′-dimethyl-2,2′-binaphthyl-5,5′-dicarboxylic acid]
induction of apoptosis of the RS11846 cell line ([6]; in words): weak or no apoptosis

Compound: Cc1cc2c(CC3CCCC3)c(O)c(O)cc2c(O)c1-c1c(C)cc2c(CC3CCCC3)c(O)c(O)cc2c1O [Compound 12c, 5,5′-bis(cyclopentylmethyl)-3,3′-dimethyl-2,2′-binaphthyl-1,1′,6,6′,7,7′-hexaol]
1D-^1H NMR (BCL-XL [1]; Table 4): + | EC50 (H1299 cell line; NCI-H1299, ATP-LITE assay, read-out: EC50 H1299): 10900 nM | EC50 (PC3ML cells; ATP-LITE assay, read-out: EC50 PC3ML): 11200 nM | EC50 ([5]; NCI-H460, ATP-LITE assay, read-out: EC50 H460): 1800 nM | EC50 ([6]; Annexin V-FITC and propidium iodide assay, read-out: EC50 RS11846): 4500 nM | Plasma stability (T = 1 h) (Plasma stability): 81% | Microsomal Stability (T = 1 h) [2]: 75% | signs of toxicity (B6Bcl-2 transgenic mice; 72 μmol/kg and even 120 μmol/kg): no significant signs of toxicity | Tox (B6Bcl-2 transgenic mice; Bcl-2 transgenic mouse, single ip injection 72 μmol/kg): 1+

1D ^1H-NMR Binding Assay (BCL-XL) (BCL-XL [1]): ++ | EC50 (H1299 cell line; [8]): 2200 nM | EC50 (PC3ML cells; Table 9, read-out: PC3ML EC50): 2800 nM | EC50 [5, 9]: 1500 nM | EC50 [6, 10]: 3100 nM | IC50 (BCL-XL [3]; [11]): 140 nM
Compound: Cc1cc2c(C(=O)CCc3ccc(F)cc3)c(O)c(O)cc2c(O)c1-c1c(C)cc2c(C(=O)CCc3ccc(F)cc3)c(O)c(O)cc2c1O [Compound XVI, 1,1′-(1,1′,6,6′,7,7′-hexahydroxy-3,3′-dimethyl-2,2′-binaphthyl-5,5′-diyl)bis(3-(4-fluorophenyl)propan-1-one)]
EC50 (RS11846 cell line; Table 9): 2300 nM

1D-^1H NMR (BCL-XL [1]; Table 3): ++ | EC50 [5, 12]: 1300 nM | EC50 [6, 13]: 5100 nM | EC50 [4]: 700 nM
Compound: Cc1cc2c(C(=O)NCCc3ccc(Cl)cc3)c(O)c(O)cc2c(O)c1-c1c(C)cc2c(C(=O)NCCc3ccc(Cl)cc3)c(O)c(O)cc2c1O [Compound 8t, N^5,N^5′-bis(4-chlorophenethyl)-1,1′,6,6′,7,7′-hexahydroxy-3,3′-dimethyl-2,2′-binaphthyl-5,5′-dicarboxamide]

Compound: Cc1ccc(CC(=O)c2c(O)c(O)cc3c(O)c(-c4c(C)cc5c(C(=O)Cc6ccc(C)cc6)c(O)c(O)cc5c4O)c(C)cc23)cc1 [Compound XII, 1,1′-(1,1′,6,6′,7,7′-hexahydroxy-3,3′-dimethyl-2,2′-binaphthyl-5,5′-diyl)bis(2-p-tolylethanone)]
1D ^1H-NMR Binding Assay (BCL-XL) (BCL-XL [1]): ++ | times more potent than Apogossypol, ITC Bcl-XL (BCL-XL [7]): 40 | EC50 (H1299 cell line; [14]): 1700 nM | EC50 (PC3ML cells; read-out: PC3ML EC50, Table 9): 1900 to 4600 nM | EC50 ([5]; NCI-H460, read-out: H460 EC50): 820 nM | times more potent than Apogossypol, H460 ([5]; vs Apogossypol): 4-5 | EC50 (RS11846 cell line): 2200 nM | EC50 [6, 15]: 3000 to 5500 nM

Compound: Cc1cc2c(C(=O)Cc3ccc(OC(F)(F)F)cc3)c(O)c(O)cc2c(O)c1-c1c(C)cc2c(C(=O)Cc3ccc(OC(F)(F)F)cc3)c(O)c(O)cc2c1O [Compound XIV, 1,1′-(1,1′,6,6′,7,7′-hexahydroxy-3,3′-dimethyl-2,2′-binaphthyl-5,5′-diyl)bis(2-(4-(trifluoromethoxy)phenyl)ethanone)]
1D ^1H-NMR Binding Assay (BCL-XL) (BCL-XL [1]): ++ | EC50 (H1299 cell line; [14]): 3900 nM | EC50 (PC3ML cells; read-out: PC3ML EC50, Table 9): 1900 nM | EC50 ([5]; NCI-H460, read-out: H460 EC50): 3300 nM | EC50 (RS11846 cell line): 1800 nM | EC50 [6, 15]: 6200 nM | IC50 (BCL-XL [3]; FPA IC50 (BCL-XL), Table 9): 1300 nM

Compound: Cc1cc(C)c(CNC(=O)c2c(O)c(O)cc3c(O)c(-c4c(C)cc5c(C(=O)NCc6c(C)cc(C)cc6C)c(O)c(O)cc5c4O)c(C)cc23)c(C)c1 [Compound 8j, 1,1′,6,6′,7,7′-hexahydroxy-3,3′-dimethyl-N^5,N^5′-bis(2,4,6-trimethylbenzyl)-2,2′-binaphthyl-5,5′-dicarboxamide]
1D-^1H NMR (BCL-XL [1]; Table 3): ++ | IC50 (Bcl-2): 700 nM | IC50 (Mcl-1): 1100 nM | IC50 (BCL-XL [3]; read-out: IC50 FPA Bcl-XL): 800 nM
